Assay results reported in US11697648B2, “Fused pyrimidine pyridinone compounds as JAK inhibitors” (THERAVANCE BIOPHARMA R&D IP, LLC, priority 2019, dated 2023).

How the values were obtained:
[1] = target: Tyk2 (Homo sapiens (Human), UniProt P29597); experiment: Biochemical Tyk2 kinase assay (LanthaScreen)
In short: (§1)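 GST-JAK + GFP-STAT1 peptide, HEPES pH 7.5/MgCl2/EGTA/Brij-35 buffer; cpd preincubation 1 h RT; ATP start, 1 h RT; stop with 10 mM EDTA + 2 nM Tb-anti-pSTAT1; TR-FRET 520/495. 4-parameter IC50 → pKi (Cheng-Prusoff).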

[2] = system: IL-2 stimulated STAT5 phosphorylation in Tall-1 human T cell line (JAK3); experiment: Cellular JAK3 potency assay: inhibition of IL-2 stimulated pSTAT5 in Tall-1 T cells; assay type: cell-based; settings: IL-2 stimulated pSTAT5, Tall-1 T cells
In short: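 AlphaLISA SureFire Ultra measures STAT5 Tyr694/699 phosphorylation in lysed Tall-1 human T cells. Cells were exposed to compound for 1 h at 37 °C before a 30 min IL-2 challenge (300 ng/ml final). Values are pIC50 means with standard deviation from signal-versus-concentration curves.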

[3] = target: JAK3 (Homo sapiens (Human), UniProt P52333); experiment: Biochemical JAK3 kinase assay (LanthaScreen); settings: for JAK3 (pKi)-JAK1 (pKi): selectivity JAK3 over JAK1, difference of pKi
Sequence of JAK3 (P52333 whole entry): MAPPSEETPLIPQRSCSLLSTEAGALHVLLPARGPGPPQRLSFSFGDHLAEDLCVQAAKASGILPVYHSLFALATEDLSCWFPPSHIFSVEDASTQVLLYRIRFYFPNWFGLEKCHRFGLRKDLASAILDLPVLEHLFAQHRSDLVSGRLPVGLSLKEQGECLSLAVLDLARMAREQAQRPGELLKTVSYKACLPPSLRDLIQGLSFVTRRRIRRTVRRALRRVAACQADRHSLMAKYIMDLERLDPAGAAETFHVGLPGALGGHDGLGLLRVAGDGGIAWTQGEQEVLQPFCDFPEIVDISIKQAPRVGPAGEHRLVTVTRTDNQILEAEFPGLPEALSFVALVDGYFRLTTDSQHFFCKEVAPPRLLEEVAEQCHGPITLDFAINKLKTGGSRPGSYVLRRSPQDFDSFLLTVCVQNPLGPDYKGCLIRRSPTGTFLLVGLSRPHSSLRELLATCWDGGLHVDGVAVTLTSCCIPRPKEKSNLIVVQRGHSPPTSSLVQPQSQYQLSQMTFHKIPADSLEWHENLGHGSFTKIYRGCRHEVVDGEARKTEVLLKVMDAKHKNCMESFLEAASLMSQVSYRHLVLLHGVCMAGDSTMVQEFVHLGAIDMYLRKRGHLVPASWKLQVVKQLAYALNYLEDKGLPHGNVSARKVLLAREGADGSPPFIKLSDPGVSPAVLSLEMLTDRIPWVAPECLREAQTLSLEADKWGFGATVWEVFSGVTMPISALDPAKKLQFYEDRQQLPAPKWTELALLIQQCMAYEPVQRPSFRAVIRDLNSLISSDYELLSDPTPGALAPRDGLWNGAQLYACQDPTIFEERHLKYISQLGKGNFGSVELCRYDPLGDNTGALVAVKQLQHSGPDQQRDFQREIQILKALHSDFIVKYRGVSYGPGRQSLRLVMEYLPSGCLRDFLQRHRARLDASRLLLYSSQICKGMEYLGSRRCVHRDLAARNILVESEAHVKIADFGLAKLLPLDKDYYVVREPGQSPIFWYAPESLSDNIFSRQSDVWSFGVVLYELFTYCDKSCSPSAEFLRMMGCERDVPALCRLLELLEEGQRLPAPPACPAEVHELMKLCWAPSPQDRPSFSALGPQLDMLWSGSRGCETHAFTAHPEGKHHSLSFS
In short: as §1

[4] = target: JAK2 (Homo sapiens (Human), UniProt O60674); experiment: Biochemical JAK2 kinase assay (LanthaScreen)
Sequence of JAK2 (O60674 whole entry): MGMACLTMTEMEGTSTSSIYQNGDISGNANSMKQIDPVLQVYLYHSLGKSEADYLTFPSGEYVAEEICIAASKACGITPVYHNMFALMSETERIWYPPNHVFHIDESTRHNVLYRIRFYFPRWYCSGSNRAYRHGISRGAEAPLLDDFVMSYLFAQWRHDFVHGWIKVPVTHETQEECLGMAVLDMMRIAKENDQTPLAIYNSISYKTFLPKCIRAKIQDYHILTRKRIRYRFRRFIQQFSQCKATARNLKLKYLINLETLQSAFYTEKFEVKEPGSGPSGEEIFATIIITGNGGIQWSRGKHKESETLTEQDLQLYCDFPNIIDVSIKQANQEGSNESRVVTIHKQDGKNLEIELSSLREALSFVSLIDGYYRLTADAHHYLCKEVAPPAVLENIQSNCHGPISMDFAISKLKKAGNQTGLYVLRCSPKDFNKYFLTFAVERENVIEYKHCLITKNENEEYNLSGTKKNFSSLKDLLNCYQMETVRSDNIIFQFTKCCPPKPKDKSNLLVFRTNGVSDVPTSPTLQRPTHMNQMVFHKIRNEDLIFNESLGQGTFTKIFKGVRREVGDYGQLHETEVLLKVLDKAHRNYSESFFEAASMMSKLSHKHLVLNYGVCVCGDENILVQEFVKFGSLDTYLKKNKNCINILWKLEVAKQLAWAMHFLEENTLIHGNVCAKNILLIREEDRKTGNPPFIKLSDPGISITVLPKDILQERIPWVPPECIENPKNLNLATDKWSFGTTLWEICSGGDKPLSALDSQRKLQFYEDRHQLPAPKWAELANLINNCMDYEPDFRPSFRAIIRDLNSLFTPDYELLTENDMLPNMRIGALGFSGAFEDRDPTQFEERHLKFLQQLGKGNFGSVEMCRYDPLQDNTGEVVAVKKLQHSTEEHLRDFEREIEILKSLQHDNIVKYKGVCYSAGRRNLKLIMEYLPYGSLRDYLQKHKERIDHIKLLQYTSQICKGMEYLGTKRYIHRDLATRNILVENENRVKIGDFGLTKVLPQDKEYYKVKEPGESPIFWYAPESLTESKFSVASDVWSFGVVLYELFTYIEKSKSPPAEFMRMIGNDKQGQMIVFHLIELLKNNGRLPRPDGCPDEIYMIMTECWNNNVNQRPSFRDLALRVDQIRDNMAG
In short: as §1

[5] = target: JAK1 (Homo sapiens (Human), UniProt P23458); experiment: Biochemical JAK1 kinase assay (LanthaScreen)
Sequence of JAK1 (P23458 whole entry): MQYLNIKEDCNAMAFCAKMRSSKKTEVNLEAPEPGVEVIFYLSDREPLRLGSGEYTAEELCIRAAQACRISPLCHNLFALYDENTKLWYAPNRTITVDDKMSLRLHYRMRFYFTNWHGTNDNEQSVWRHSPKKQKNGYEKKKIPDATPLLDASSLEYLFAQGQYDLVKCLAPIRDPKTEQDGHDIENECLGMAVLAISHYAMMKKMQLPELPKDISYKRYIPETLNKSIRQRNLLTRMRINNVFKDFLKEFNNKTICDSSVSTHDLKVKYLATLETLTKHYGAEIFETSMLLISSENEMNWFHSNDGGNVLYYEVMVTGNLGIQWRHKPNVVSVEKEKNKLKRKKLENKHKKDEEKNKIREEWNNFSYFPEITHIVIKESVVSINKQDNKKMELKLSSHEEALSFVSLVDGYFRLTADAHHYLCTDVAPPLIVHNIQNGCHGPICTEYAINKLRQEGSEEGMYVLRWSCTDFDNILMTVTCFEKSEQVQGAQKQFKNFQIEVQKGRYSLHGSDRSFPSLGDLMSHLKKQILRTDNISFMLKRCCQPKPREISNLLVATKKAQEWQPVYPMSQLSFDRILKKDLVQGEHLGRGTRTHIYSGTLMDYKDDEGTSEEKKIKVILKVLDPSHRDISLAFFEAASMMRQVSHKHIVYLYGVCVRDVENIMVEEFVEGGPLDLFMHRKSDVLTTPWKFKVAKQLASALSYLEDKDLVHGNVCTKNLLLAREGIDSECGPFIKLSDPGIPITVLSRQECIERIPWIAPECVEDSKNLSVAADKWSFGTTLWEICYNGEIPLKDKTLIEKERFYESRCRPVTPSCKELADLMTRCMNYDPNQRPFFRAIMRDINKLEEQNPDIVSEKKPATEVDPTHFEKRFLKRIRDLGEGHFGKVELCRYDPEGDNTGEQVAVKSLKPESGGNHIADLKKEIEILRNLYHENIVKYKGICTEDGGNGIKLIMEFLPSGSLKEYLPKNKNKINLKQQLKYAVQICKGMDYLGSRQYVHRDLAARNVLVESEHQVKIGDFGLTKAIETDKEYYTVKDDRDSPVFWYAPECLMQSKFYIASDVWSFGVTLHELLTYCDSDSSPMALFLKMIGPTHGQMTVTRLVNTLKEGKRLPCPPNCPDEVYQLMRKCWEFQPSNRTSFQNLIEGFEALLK
In short: as §1

Sequence of Tyk2 (P29597 whole entry): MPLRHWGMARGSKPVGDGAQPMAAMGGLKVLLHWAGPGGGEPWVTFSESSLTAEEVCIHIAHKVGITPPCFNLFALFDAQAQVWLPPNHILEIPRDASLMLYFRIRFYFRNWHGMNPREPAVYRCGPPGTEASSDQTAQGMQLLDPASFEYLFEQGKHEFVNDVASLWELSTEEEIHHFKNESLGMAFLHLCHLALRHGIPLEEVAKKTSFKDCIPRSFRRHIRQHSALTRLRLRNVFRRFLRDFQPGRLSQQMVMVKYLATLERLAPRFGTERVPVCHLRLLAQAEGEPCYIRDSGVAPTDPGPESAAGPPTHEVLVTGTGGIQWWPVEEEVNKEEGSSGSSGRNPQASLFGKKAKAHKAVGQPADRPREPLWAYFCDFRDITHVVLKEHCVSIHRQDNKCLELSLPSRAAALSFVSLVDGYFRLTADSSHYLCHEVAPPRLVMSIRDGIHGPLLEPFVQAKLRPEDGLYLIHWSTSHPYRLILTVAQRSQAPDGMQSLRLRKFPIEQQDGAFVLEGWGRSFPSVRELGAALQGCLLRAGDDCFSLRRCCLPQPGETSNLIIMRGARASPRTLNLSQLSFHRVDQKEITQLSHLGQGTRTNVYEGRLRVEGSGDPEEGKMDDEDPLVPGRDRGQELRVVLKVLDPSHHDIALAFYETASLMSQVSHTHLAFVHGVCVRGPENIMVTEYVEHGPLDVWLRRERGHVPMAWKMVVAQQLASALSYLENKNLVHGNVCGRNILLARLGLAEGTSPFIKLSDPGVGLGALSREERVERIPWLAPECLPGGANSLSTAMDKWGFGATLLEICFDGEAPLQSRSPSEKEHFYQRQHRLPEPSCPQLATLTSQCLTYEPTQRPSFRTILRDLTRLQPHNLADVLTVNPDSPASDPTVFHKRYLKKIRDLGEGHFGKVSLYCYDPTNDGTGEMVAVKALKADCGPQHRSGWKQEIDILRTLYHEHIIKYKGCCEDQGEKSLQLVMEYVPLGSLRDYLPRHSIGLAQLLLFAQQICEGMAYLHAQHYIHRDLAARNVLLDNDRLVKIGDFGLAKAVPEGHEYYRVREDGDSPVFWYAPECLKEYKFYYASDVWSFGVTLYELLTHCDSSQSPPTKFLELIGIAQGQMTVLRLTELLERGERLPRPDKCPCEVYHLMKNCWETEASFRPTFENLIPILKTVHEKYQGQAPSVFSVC

Row | Structure (SMILES) | Tyk 2 (pKi) [1] | Tall-1 (pIC50) [2] | JAK 3 (pKi) [3] | JAK3 (pKi)-JAK1 (pKi) [3] | JAK 2 (pKi) [4] | JAK 1 (pKi) [5]
1 | C=CC(=O)N1CC(CCn2c(=O)ccc3cnc(Nc4ccc(N5CCN(C(C)C)CC5)cc4)nc32)C1 [Example 120] | E (E represents a pKi value of 7 or below (Ki of 100 nM or above)) | A (A represents a pIC50 value≥7.5 (IC50≤32 nM)) | B (B represents pKi value between 9 and 10 (Ki between 1 nM and 0.1 nM)) | A (A represents a value of 3 or above) | E (E represents a pKi value of 7 or below (Ki of 100 nM or above)) | E (E represents a pKi value of 7 or below (Ki of 100 nM or above))
2 | C=CC(=O)N1C[C@H](C)N(CCn2c(=O)ccc3cnc(Nc4cnn(C)c4)nc32)C[C@@H]1C [Example 121] | E (E represents a pKi value of 7 or below (Ki of 100 nM or above)) | C (C represents a pIC50 value between 6 and 6.7 (IC50 between 1 μM and 200 nM)) | B (B represents pKi value between 9 and 10 (Ki between 1 nM and 0.1 nM)) | B (B represents a value of 2.5 to 3) | E (E represents a pKi value of 7 or below (Ki of 100 nM or above)) | E (E represents a pKi value of 7 or below (Ki of 100 nM or above))
3 | C=CC(=O)N1CC(CCn2c(=O)ccc3cnc(Nc4cccc(N5CCN(S(=O)(=O)CCOC)CC5)c4)nc32)C1 [Example 122] | E (E represents a pKi value of 7 or below (Ki of 100 nM or above)) | B (B represents a pC50 value between 6.7 (included) and 7.5 (IC50 between 200 nM and 32 nM)) | B (B represents pKi value between 9 and 10 (Ki between 1 nM and 0.1 nM)) | A (A represents a value of 3 or above) | E (E represents a pKi value of 7 or below (Ki of 100 nM or above)) | E (E represents a pKi value of 7 or below (Ki of 100 nM or above))
4 | C=CC(=O)N1CC(CCn2c(=O)ccc3cnc(Nc4cccc(CN5CCN(S(=O)(=O)C6COC6)CC5)c4)nc32)C1 [Example 126] | E (E represents a pKi value of 7 or below (Ki of 100 nM or above)) | B (B represents a pC50 value between 6.7 (included) and 7.5 (IC50 between 200 nM and 32 nM)) | A (A represents a pKi value≥10 (Ki≤0.1 nM)) | A (A represents a value of 3 or above) | E (E represents a pKi value of 7 or below (Ki of 100 nM or above)) | E (E represents a pKi value of 7 or below (Ki of 100 nM or above))
5 | C=CC(=O)N1CC(CCn2c(=O)ccc3cnc(Nc4cccc(N5CCN(S(=O)(=O)CC#N)CC5)c4)nc32)C1 [Example 128] | E (E represents a pKi value of 7 or below (Ki of 100 nM or above)) | B (B represents a pC50 value between 6.7 (included) and 7.5 (IC50 between 200 nM and 32 nM)) | A (A represents a pKi value≥10 (Ki≤0.1 nM)) | A (A represents a value of 3 or above) | E (E represents a pKi value of 7 or below (Ki of 100 nM or above)) | E (E represents a pKi value of 7 or below (Ki of 100 nM or above))
6 | C=CC(=O)N1CC(CCn2c(=O)ccc3cnc(Nc4cccc(N5CCN(S(=O)(=O)C6COC6)CC5)c4)nc32)C1 [Example 129] | E (E represents a pKi value of 7 or below (Ki of 100 nM or above)) | B (B represents a pC50 value between 6.7 (included) and 7.5 (IC50 between 200 nM and 32 nM)) | A (A represents a pKi value≥10 (Ki≤0.1 nM)) | A (A represents a value of 3 or above) | E (E represents a pKi value of 7 or below (Ki of 100 nM or above)) | E (E represents a pKi value of 7 or below (Ki of 100 nM or above))
7 | C=CC(=O)N1CC(CCn2c(=O)ccc3cnc(Nc4cccc(CN5CCN(S(=O)(=O)CCOC)CC5)c4)nc32)C1 [Example 132] | E (E represents a pKi value of 7 or below (Ki of 100 nM or above)) | B (B represents a pC50 value between 6.7 (included) and 7.5 (IC50 between 200 nM and 32 nM)) | A (A represents a pKi value≥10 (Ki≤0.1 nM)) | A (A represents a value of 3 or above) | E (E represents a pKi value of 7 or below (Ki of 100 nM or above)) | E (E represents a pKi value of 7 or below (Ki of 100 nM or above))
8 | C=CC(=O)N1CCN(CCn2c(=O)ccc3cnc(Nc4ccc(N5CCN(C(=O)COC)CC5)cc4)nc32)CC1 [Example 144] | E (E represents a pKi value of 7 or below (Ki of 100 nM or above)) | B (B represents a pC50 value between 6.7 (included) and 7.5 (IC50 between 200 nM and 32 nM)) | A (A represents a pKi value≥10 (Ki≤0.1 nM)) | A (A represents a value of 3 or above) | E (E represents a pKi value of 7 or below (Ki of 100 nM or above)) | E (E represents a pKi value of 7 or below (Ki of 100 nM or above))
9 | C=CC(=O)N1CCN(CCn2c(=O)ccc3cnc(Nc4ccc(N5CCN(C(=O)N(C)C)CC5)cc4)nc32)CC1 [Example 146] | E (E represents a pKi value of 7 or below (Ki of 100 nM or above)) | B (B represents a pC50 value between 6.7 (included) and 7.5 (IC50 between 200 nM and 32 nM)) | B (B represents pKi value between 9 and 10 (Ki between 1 nM and 0.1 nM)) | A (A represents a value of 3 or above) | E (E represents a pKi value of 7 or below (Ki of 100 nM or above)) | E (E represents a pKi value of 7 or below (Ki of 100 nM or above))
10 | C=CC(=O)N1CCN(CCn2c(=O)ccc3cnc(Nc4ccc(N5CCN(S(=O)(=O)CCOC)CC5)cc4)nc32)CC1 [Example 147] | E (E represents a pKi value of 7 or below (Ki of 100 nM or above)) | C (C represents a pIC50 value between 6 and 6.7 (IC50 between 1 μM and 200 nM)) | B (B represents pKi value between 9 and 10 (Ki between 1 nM and 0.1 nM)) | A (A represents a value of 3 or above) | E (E represents a pKi value of 7 or below (Ki of 100 nM or above)) | E (E represents a pKi value of 7 or below (Ki of 100 nM or above))
11 | C=CC(=O)N1CCN(CCn2c(=O)ccc3cnc(Nc4ccc(N5CCN(S(=O)(=O)C6COC6)CC5)cc4)nc32)CC1 [Example 148] | E (E represents a pKi value of 7 or below (Ki of 100 nM or above)) | C (C represents a pIC50 value between 6 and 6.7 (IC50 between 1 μM and 200 nM)) | B (B represents pKi value between 9 and 10 (Ki between 1 nM and 0.1 nM)) | A (A represents a value of 3 or above) | E (E represents a pKi value of 7 or below (Ki of 100 nM or above)) | E (E represents a pKi value of 7 or below (Ki of 100 nM or above))
12 | C=CC(=O)N1CCN(CCn2c(=O)ccc3cnc(Nc4cnn(C)c4)nc32)C2(CC2)C1 [Example 149] | E (E represents a pKi value of 7 or below (Ki of 100 nM or above)) | C (C represents a pIC50 value between 6 and 6.7 (IC50 between 1 μM and 200 nM)) | B (B represents pKi value between 9 and 10 (Ki between 1 nM and 0.1 nM)) | A (A represents a value of 3 or above) | E (E represents a pKi value of 7 or below (Ki of 100 nM or above)) | E (E represents a pKi value of 7 or below (Ki of 100 nM or above))
13 | C=CC(=O)N1CCN(CCn2c(=O)ccc3cnc(Nc4ccc(N5CCN(C(C)=O)CC5)c(F)c4)nc32)CC1 [Example 152] | E (E represents a pKi value of 7 or below (Ki of 100 nM or above)) | C (C represents a pIC50 value between 6 and 6.7 (IC50 between 1 μM and 200 nM)) | B (B represents pKi value between 9 and 10 (Ki between 1 nM and 0.1 nM)) | A (A represents a value of 3 or above) | E (E represents a pKi value of 7 or below (Ki of 100 nM or above)) | E (E represents a pKi value of 7 or below (Ki of 100 nM or above))
